Measurements as given in article PMC12040169 (PLOS Biology, 2025).

Assay: in vitro
Conditions: human, hela cells, % viability

Compound	viability at 28.5 h, 10 µM
CN(c1ncc(Br)cc1C(=O)Nc1ccc(C(F)(F)F)cc1)S(C)(=O)=O [CBK076542]	93.3%
Cc1cc(C(=O)N2CCN(C)CC2)ccc1-c1cnc(N)c(-c2ccc(O)cc2)n1 [CBK126749]	94.8%
CC(Cc1cccs1)NC(=O)c1cc2c([nH]c1=O)CCCCC2 (stereo not shown) [CBK282523]	109%
Cc1nn(Cc2cccc(C(=O)NCc3ccccn3)c2)c(C)c1Cl [CBK265755]	97.7%
CC(C)[C@H](CO)Nc1nccnc1-c1cccs1 [CBK089047]	99%
CC(C)OC(=O)Cn1c(C2CCNCC2)cc2cccnc21 [CBK285075]	99.9%
Cc1cc(NC(=O)C(C)C)nc2c1c(=O)oc1ccccc12 [CBK287441]	89.7%
Cc1nn(C)c(Oc2ccc3c(c2)CCCC3)c1[N+](=O)[O-] [CBK000273]	91.2%
Cc1ccccc1N1CCN(C(=O)c2nn[nH]c2Nc2ccccc2F)CC1 [CBK288032]	101%
N#C/C(=C/c1ccc(OCc2ccc(C(=O)O)cc2)cc1)C(=O)Nc1ccc(Cl)cc1 [CBK263187]	98.2%
COc1ccc(S(=O)(=O)NCCN2CCOCC2)c(Cl)c1Cl [CBK269999]	95%
COc1ccc(Oc2nccc(N3CCCN(CCCO)CC3)n2)cc1OC [CBK084158]	93.5%
Fc1ccc(CN(Cc2ccsc2)[C@@H]2COC[C@H]2c2ccc(F)cc2)cc1 [CBK286486]	92.8%
O=c1c2c(-c3ccc(F)cc3)csc2ncn1CC1(CO)CCOCC1 [CBK306822]	88%
O=C(C1CC1)N1CCC(c2nc(Cc3cccs3)no2)C1 (stereo not shown) [CBK282980]	89.6%
Cc1cc(C)n(-c2cc(C)c3ccccc3n2)n1 [CBK262358]	81.9%
COCCC(=O)NCC1Cc2cc(F)cc(-c3ccc(C(C)=O)s3)c2O1 (stereo not shown) [CBK306742]	109%
OC(CN1CCC(O)(c2ccc(F)cc2)CC1)c1ccc(F)cc1 (stereo not shown) [CBK282510]	79%
O=C(NCC1(O)CCSCC1)c1ccc2ccccc2n1 [CBK305211]	85%
CCCCOC(=O)c1ccccc1NC(=O)NCCc1cccs1 [CBK043573]	93.5%
CN(C)C1CCN(C(=O)c2ccc(-c3cnc(OCC4CCN(C(=O)OC(C)(C)C)CC4)nc3)cc2)C1 (stereo not shown) [CBK169767]	113%
COc1ccccc1-c1ccc(NC(=O)c2ccc3c(c2)ncn3C)cc1 [CBK285652]	103%

Compound	viability at 28.5 h, 10 µM
Cc1ccc2c(c1)CCCN2C(=O)c1cnc2c(c1)c(C)nn2C [CBK305670]	96%
O=C(Nc1ccc(C(F)(F)F)cc1)N(Cc1ccc2ccccc2c1)CC1CCNCC1 [CBK056720]	88.9%
CC(=O)Nc1cc(C(=O)Nc2ccc(Br)cc2)ccc1C [CBK267788]	84.1%
Cc1c(C(C)NCC(O)COc2ccc(C#N)cc2)cnn1C (stereo not shown) [CBK304881]	97.5%
COc1cc(CN2CCC(C)CC2)c([N+](=O)[O-])cc1OC [CBK261911]	90%
COCCN(CCOC)c1ncc(C#N)cc1Cl [CBK306227]	92.6%
O=S(=O)(c1ccc(F)cc1)N1CCCC1c1cccc(Cc2ccc(F)cc2)n1 (stereo not shown) [CBK286249]	88%
COC(=O)c1ccccc1NC(=O)CSc1nnnn1C [CBK267441]	90%
Cc1ccc(Cl)c(N2CCN(CCCn3c(=S)[nH]c4ccccc4c3=O)CC2)c1 [CBK268011]	90%
O=C(Nc1ccccc1-c1ccccc1)C1CN(S(=O)(=O)c2ccccc2)CCN1S(=O)(=O)c1ccccc1 (stereo not shown) [CBK265902]	91.1%
O=C(Oc1ccc(F)cc1C(=O)/C=C/c1ccccc1F)c1cccc([N+](=O)[O-])c1 [CBK264859]	86.9%
Cc1c(C(=O)C2=C(O)C(=O)N(Cc3cccnc3)C2c2ccncc2)cnn1-c1ccccc1 (stereo not shown) [CBK233899]	114%
CCOc1ccccc1N(CC(=O)O)S(=O)(=O)c1ccc(Cl)cc1 [CBK287144]	110%
CC(C)(C)NC(=O)C[C@@H]1CCNC[C@@H]1Cc1cc(-c2ccccc2)on1 [CBK289145]	86%
COc1ccc(Br)cc1CN1CCC(N2CCN(c3ccccc3OC)CC2)CC1 [CBK264681G]	88.4%
CCCn1ncc(CN2CCCC(c3cc4cccnc4[nH]3)C2)c1C (stereo not shown) [CBK284957]	95.1%
CC(C)(C)OC(=O)N1CCN(c2ccc([N+](=O)[O-])cn2)CC1 [CBK000134]	95.6%
CC(C)c1cccc(C(C)C)c1OCCNCCO [CBK262750]	89.3%
CCCc1cc(=O)n2c(n1)SCOC2 [CBK010967]	108%
O=c1c(N2CCC(Sc3ccccc3)CC2)nccn1Cc1ccc(OC(F)(F)F)cc1 [CBK155257]	94.7%
COc1ccc(C(=O)N/C(=C/c2ccc([N+](=O)[O-])cc2)c2nc3ccc(C(F)(F)F)cc3[nH]2)cc1OC [CBK263199]	104%
COc1ccc(-c2n[nH]c(=S)n2CC(=O)N2CCN(c3cccc(C)c3)CC2)cc1 [CBK295352]	88.6%

Compound	viability at 28.5 h, 10 µM
CCC(Oc1ccc(C)cc1)C(=O)Nc1ccccc1C(=O)N1CCOCC1 (stereo not shown) [CBK270132]	85.6%
Cc1cc(NC(=O)CN2CCC(CNc3ccccn3)C2)on1 (stereo not shown) [CBK305760]	89.2%
Cc1ccccc1NC(=O)c1cnc2n(c1=O)CCS2 [CBK287374]	110%
Nc1ncc(-c2ccc(C(=O)N3CCOCC3)cc2)nc1C(=O)NC1CCCCC1 [CBK149160]	89.3%
O=C(Nc1ccc2c(c1)OCO2)c1cccc(I)c1 [CBK058308]	85.7%
CC(C)NC(=O)c1ccc(-n2cccn2)c(C#Cc2cccnc2)c1 [CBK284523]	94.3%
NC(=O)c1cccc(COc2ccccc2C(=O)Nc2ccc(-c3ccsc3)cc2C(=O)O)c1 [CBK001718]	82.6%
Cc1nn(C)c(Cl)c1S(=O)(=O)NCCc1c[nH]c2ccccc12 [CBK067310]	85.2%
CS(=O)(=O)N(CC(=O)NCc1ccccn1)c1ccc(C23CC4CC(CC(C4)C2)C3)cc1 [CBK268448]	106%
CN1CCN(C(=O)C2CCN(CCCc3ccccc3)CC2)CC1 [CBK264326G]	96%
CCN(CC)C(=O)CN1CCCN(c2cc(Oc3ccc(OC)c(OC)c3)ncn2)CC1 [CBK083359T]	98.5%
COc1cc(/C=N/n2c(S)nnc2C(F)(F)F)cc(Br)c1O [CBK265321]	74.2%
Cc1cc(C)c(S(=O)(=O)Nc2nnc(C(F)(F)F)s2)c(C)c1 [CBK045507]	99.7%
Cc1onc(-c2ccccc2Cl)c1C(=O)Nc1ccc(S(=O)(=O)NCC2CCCO2)cc1 (stereo not shown) [CBK267536]	88.9%
CC(=O)N1CCC(N2CC[C@H](c3nnc(-c4ccco4)o3)C2)CC1 [CBK289395]	86.9%
C[C@H](Nc1cncc(-c2cccc(C(=O)NCCO)c2)n1)c1ccccc1 [CBK066007]	108%
Cc1ccc(OCc2cccc3nsnc23)cc1[N+](=O)[O-] [CBK266063]	98.2%
COCCNC(=O)c1ccc(-c2cc(C(C)C)ccc2OC)nc1N(C)C [CBK106061]	103%
CNC(=O)c1sc2ccccc2c1C1CCN(Cc2cnc(-c3ccc(C)cc3)nc2)C1 (stereo not shown) [CBK285883]	108%
CC(=O)Nc1c(O)nc(SCC(=O)Nc2ccccc2C(N)=O)[nH]c1=O [CBK268031]	97.8%
CO/N=C(/C(=O)O)c1cn2cc(Br)ccc2n1 [CBK260925G]	87.2%
O=C(CC1S/C(=N/N=C/c2ccccc2C(=O)O)NC1=O)Nc1ccccc1 (stereo not shown) [CBK264515]	99.7%

Compound	viability at 28.5 h, 10 µM
O=S(=O)(c1cccc2nsnc12)N1CCCN(Cc2ccsc2)CC1 [CBK038570]	105%
CCCCSc1nnc(-c2cc3c(C(F)(F)F)nn(C)c3s2)n1C [CBK019526]	97.5%
COc1ccc2cc(COC(=O)c3cnc(C)cn3)c(Cl)nc2c1 [CBK295288]	106%
CCOC(=O)c1cn(CC)c2cc(N3CCN(C)CC3)c(F)cc2c1=O [CBK307141]	92.9%
CS(=O)(=O)Nc1nc2ccc(S(C)(=O)=O)cc2s1 [CBK092166]	100%
O=C(CSc1nc2cccnc2[nH]1)Nc1cccc(F)c1 [CBK270113]	89.3%
CC(C)N(C(=O)CN1C(=O)N2CCCN=C2c2ccccc21)C(C)C [CBK284400]	100%
NC(=O)c1c(NC(=S)NC(NC(=O)c2ccco2)C(Cl)(Cl)Cl)sc2c1CCCC2 (stereo not shown) [CBK261055]	103%
Cn1c(S)nnc1-c1ccccc1F [CBK028811]	95%
Nc1ncc(-c2ccoc2)nc1NCc1ccncc1 [CBK063656]	95.1%
Oc1ccccc1Sc1cnccn1 [CBK085840]	104%
CC(=O)c1cc(C(=O)NCc2ccc(C)cc2)n(C)c1 [CBK296750]	85.1%
C=CCN1C(=O)C2(CC(=O)N(CC)C2=O)c2cc(F)ccc21 (stereo not shown) [CBK075318]	100%
CN(CC(=O)NCc1ccccc1OC1CCNC1)C(=O)c1ccccc1 (stereo not shown) [CBK028298T]	96.9%
COc1ccc(OCc2nnn[nH]2)cc1 [CBK270000]	89.9%
O=C(C1CCCC1)N1CCCCC1c1n[nH]cc1-c1ccncc1 (stereo not shown) [CBK283427]	90.4%
Cc1nn(C)cc1CN1CCCC(c2cc3ccccc3cn2)C1 (stereo not shown) [CBK285041]	108%
CN(C)S(=O)(=O)N1CCN(Cc2ccccc2)CC1 [CBK263638]	109%
CN1CCN(S(=O)(=O)c2cccc3nsnc23)CC1 [CBK062428]	102%
CCOCc1c(O)ccc2c([N+](=O)[O-])c(C)n(-c3ccc(OC)cc3)c12 [CBK095589]	87.8%

Same assay, conditions: human, hela cells, % viability, bulk resorufin, single well

Compound	viability at 28.5 h, 10 µM
COc1cc(C(=O)N2CCC(N3C(=O)Cc4ccccc43)CC2)ccc1C [CBK155465]	84.2%
Cc1c([N+](=O)[O-])c([N+](=O)[O-])nn1CC(=O)NCc1cccnc1 [CBK262428]	97.2%
